pIC50: −log10 of the molar value.
Key:
PC3 (prostate) = assay: In vitro cytotoxic activity MTT assay, PC3; format: cell-based; conditions: Homo sapiens; cells exposed for 96 hours; 50% inhibition of cell proliferation; read-out: Cytotoxicity activity IC50, PC3 (prostate)
Experimental: (§1) Compounds 1-16 were screened for their in vitro cytotoxic activity utilizing a 3-(4,5-dimethyl-thiazol-2-yl)-2,5-diphenyltetrazolium bromide (MTT) assay against selected cancer human cell lines consisting of PC3 (prostate), HCT116 (colon), A375 (melanoma), H1299 (lung), MIAPaCa-2 (pancreas), HL60 (leukemia), MCF7 (breast), MDA-MB-231 (breast) (T. Mosmann, J. Immunol. Meth., 1983, 65, 55-63). The cells were cultured at 37° C. in RMPI1640 medium supplemented with 10% fetal bovine serum, 50 IU/mL penicillin, and 50 μg/mL streptomycin in a 5% CO2 incubator. All cells were sub-cultured 3 times/week by trypsinisation. Viable cells were seeded and allowed to adhere for 12 h before a test drug was added in 96-well plates at an initial density of 1.0×10^5 cells/mL. Tumor cell lines were separately exposed to various concentrations of the tested compounds followed by incubation at a temperature of 37° C. during 96 hours inside a medium of fresh RMPI 1640. Cells were subsequently incubated at 37° C. using MTT at 0.5 mg/mL during 4 hours. After removal of supernatant, formazan crystals were dissolved in isopropanol and the optical density was measured at 570 nm. CX-4945 was used as a positive control.

HCT116 (colon) = assay: In vitro cytotoxic activity MTT assay, HCT116; format: cell-based; conditions: Homo sapiens, HCT-116; cells exposed for 96 hours; 50% inhibition of cell proliferation; read-out: Cytotoxicity activity IC50, HCT116 (colon)
Experimental: as §1

A375 (melanoma) = assay: In vitro cytotoxic activity MTT assay, A375; format: cell-based; conditions: Homo sapiens, A-375; cells exposed for 96 hours; 50% inhibition of cell proliferation; read-out: Cytotoxicity activity IC50, A375 (melanoma)
Experimental: as §1

H1299 (lung) = assay: In vitro cytotoxic activity MTT assay, H1299; format: cell-based; conditions: Homo sapiens, NCI-H1299; cells exposed for 96 hours; 50% inhibition of cell proliferation; read-out: Cytotoxicity activity IC50, H1299 (lung)
Experimental: as §1

MIAPaCa-2 (pancreas) = assay: In vitro cytotoxic activity MTT assay, MIAPaCa-2; format: cell-based; conditions: Homo sapiens, MIA PaCa-2; cells exposed for 96 hours; 50% inhibition of cell proliferation; read-out: Cytotoxicity activity IC50, MIAPaCa-2 (pancreas)
Experimental: as §1

HL60 (leukemia) = assay: In vitro cytotoxic activity MTT assay, HL60; format: cell-based; conditions: Homo sapiens, HL-60; cells exposed for 96 hours; 50% inhibition of cell proliferation; read-out: Cytotoxicity activity IC50, HL60 (leukemia)
Experimental: as §1

MCF7 (breast) = assay: In vitro cytotoxic activity MTT assay, MCF7; format: cell-based; conditions: Homo sapiens, cells exposed for 96 hours, 50% inhibition of cell proliferation, read-out: Cytotoxicity activity IC50, MCF7 (breast)
Experimental: as §1

MDA-MB-231 (breast) = assay: In vitro cytotoxic activity MTT assay, MDA-MB-231; format: cell-based; conditions: Homo sapiens, cells exposed for 96 hours, 50% inhibition of cell proliferation, read-out: Cytotoxicity activity IC50, MDA-MB-231 (breast)
Experimental: as §1

recombinant human CK2 = target: T1, recombinant human CK2 (Homo sapiens, UniProt P68400); assay: CK2 Kinase Assay (33P-ATP, substrate peptide RRRDDDSDDD); format: biochemical; conditions: final ATP concentration 15 μM; 10 min at 30° C.; eight concentrations; read-out: protein kinase CK2 IC50
T1 construct: purchased Millipore
Experimental: CK2 Kinase Assay was conducted using the protocol as described in Pierre F. et al; J. Med. Chem. 2011, 54, 635-654. The tested compounds in aqueous solution were added at a volume of 10 μL to a reaction mixture comprising 10 μL of assay dilution buffer (ADB; 20 mM MOPS, pH 7.2, 25 mM β-glycerol phosphate, 5 mM EGTA, 1 mM sodium orthovanadate, and 1 mM dithiothreitol), 10 μL of substrate peptide (RRRDDDSDDD, dissolved in ADB at a concentration of 1 mM), 10 μL of recombinant human CK2 (RRββ-holoenzyme, 25 ng dissolved in ADB; Millipore). Reactions were initiated by the addition of 10 μL of ATP solution (90%75 mMMgCl2, 75 µM ATP (final ATP concentration: 15 μM) dissolved in ADB; 10% [γ-33P] ATP (stock 1 mCi/100 μL; 3000 Ci/mmol (Perkin-Elmer) and maintained for 10 min at 30° C. The reactions were quenched with 100 μL of 0.75% phosphoric acid and then transferred to and filtered through a phosphor cellulose filter plate (Millipore). After washing each well five times with 0.75% phosphoric acid, the plate was dried under vacuum for 5 min and, following the addition of 15 μL of scintillation fluid to each well, the residual radioactivity was measured using a Wallac luminescence counter. The IC50 values were derived from eight concentrations of test inhibitors.

T1 sequence (P68400 whole entry): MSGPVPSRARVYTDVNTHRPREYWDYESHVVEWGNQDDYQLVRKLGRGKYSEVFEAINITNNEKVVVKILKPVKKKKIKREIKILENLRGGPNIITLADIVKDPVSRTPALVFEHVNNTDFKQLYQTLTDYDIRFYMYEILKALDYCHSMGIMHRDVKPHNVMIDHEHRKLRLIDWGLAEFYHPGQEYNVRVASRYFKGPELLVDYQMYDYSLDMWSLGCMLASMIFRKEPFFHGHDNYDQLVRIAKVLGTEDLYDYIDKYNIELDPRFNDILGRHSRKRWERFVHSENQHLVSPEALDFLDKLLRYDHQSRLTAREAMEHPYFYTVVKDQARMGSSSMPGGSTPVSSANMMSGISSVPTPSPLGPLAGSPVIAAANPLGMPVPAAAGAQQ
T1 sequence (P67870 whole entry partner): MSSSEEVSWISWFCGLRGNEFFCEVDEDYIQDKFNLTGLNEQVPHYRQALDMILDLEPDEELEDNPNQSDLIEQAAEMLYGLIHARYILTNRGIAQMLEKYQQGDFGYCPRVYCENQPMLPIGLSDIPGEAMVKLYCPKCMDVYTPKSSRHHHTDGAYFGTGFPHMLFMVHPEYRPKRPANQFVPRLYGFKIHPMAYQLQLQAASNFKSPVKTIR

Structure (SMILES): Clc1cccc(Nc2c3cnccc3nc3c2nn2ccncc32)c1 [Compound (1), N-(3-chlorophenyl)pyrazino[1′,2′:1,5]pyrazolo[4,3-b][1,6]naphthyridin-7-amine]
- pIC50 (PC3 (prostate)): 5.85
- pIC50 (HCT116 (colon)): 5.77
- pIC50 (A375 (melanoma)): 5.44
- pIC50 (H1299 (lung)): 5.60
- pIC50 (MIAPaCa-2 (pancreas)): 5.96
- pIC50 (HL60 (leukemia)): 5.54
- pIC50 (MCF7 (breast)): 5.21
- pIC50 (MDA-MB-231 (breast)): 5.28
- pIC50 (recombinant human CK2): 4.00

— patent publication US12129259B1, “Pyrazino[1′,2′:1,5]pyrazolo[4,3-b][1,6]naphthyridines compounds as CK2 inhibitors” (KING FAISAL UNIVERSITY, priority 2023, dated 2024)
